Consider 2 molecules from patent US9849097B2, “Dosage forms containing terbutaline sulphate” (Jagotec AG, priority 2012, dated 2017).

For data set [1] the following is noted: oxidative degradation, aqueous solutions; cited from earlier work.
Data set [2] in a line: accelerated stability study on the drug. The class given is physicochemical. The note with it: 60° C. and 90% relative humidity for up to 4 weeks. The procedure:
Thus, in the development of a terbutaline sulphate dosage form, the applicant carried out accelerated stability studies on the drug at a temperature of 60° C. and 90% relative humidity for up to 4 weeks.

Consider `CC(C)(C)NCC(O)c1cc(O)cc(O)c1` (centres unmarked) [terbutaline], for which the “stability of drug substance” value in data set [1] was “highly stable”.
As for `CC(C)(C)NCC(O)c1cc(O)cc(O)c1` (centres unmarked) [terbutaline sulphate], the degradation products result in data set [2] was “No degradation products were observed”.
